Data reported in the supplement of paper PMC8183993.

Experiments:
Settings in all cases: 24 h
[1] = system: U2OS; test: mean OPP incorporation (global translation) relative to DMSO (% of DMSO); higher = more protein synthesis
Description: (§1)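 Validation screen in U2OS cells: hits tested at 1, 3 and 10 uM for 24 h in duplicate plates. Translation was read by OPP incorporation (1 h pulse) and HPG incorporation (30 min in methionine-free medium), quantified by high-throughput microscopy alongside nuclei counts. All values are normalised to DMSO (= 100).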

[2] = system: U2OS; test: mean HPG incorporation (global translation) relative to DMSO (% of DMSO); higher = more protein synthesis
Description: as §1

[3] = system: U2OS; test: nuclei count in OPP assay relative to DMSO (% of DMSO); higher = more viable cells
Description: as §1

[4] = system: U2OS; test: nuclei count in HPG assay relative to DMSO (% of DMSO); higher = more viable cells
Description: as §1

SMILES | mean OPP incorporation ([1]; 1 µM) | mean OPP incorporation ([1]; 3 µM) | mean OPP incorporation ([1]; 10 µM) | mean HPG incorporation ([2]; 1 µM) | mean HPG incorporation ([2]; 3 µM) | mean HPG incorporation ([2]; 10 µM) | nuclei count in OPP assay ([3]; 1 µM) | nuclei count in OPP assay ([3]; 3 µM) | nuclei count in OPP assay ([3]; 10 µM) | nuclei count in HPG assay ([4]; 1 µM) | nuclei count in HPG assay ([4]; 3 µM) | nuclei count in HPG assay ([4]; 10 µM)
CCCc1cc(C)[nH]c(=O)c1CNC(=O)c1cc(-c2ccc(N3CCN(C(C)C)CC3)nc2)cc2c1cnn2C(C)C [UNC1999] | 108 | 119 | 122 | 111 | 119 | 77.1 | 89.3 | 93.6 | 73.9 | 93.7 | 94.7 | 80.6
Cc1cn(-c2cc(NC(=O)c3ccc(C)c(Nc4nccc(-c5cccnc5)n4)c3)cc(C(F)(F)F)c2)cn1 [Nilotinib (AMN-107)] | 112 | 120 | 116 | 95 | 93.5 | 92.5 | 96.6 | 94.2 | 80.2 | 101 | 91.3 | 98.5
Cc1c(CN2CCN(C(=O)[C@H](C)O)CC2)sc2c(N3CCOCC3)nc(-c3cnc(N)nc3)nc12 [Apitolisib (GDC-0980, RG7422)] | 60.3 | 35.8 | 35.4 | 44.1 | 40.7 | 41.4 | 72.8 | 76.9 | 73.3 | 80.7 | 76.3 | 75
Cc1c(C)c2c(c(C)c1O)CC[C@](C)(CN1CCN(c3cc(N4CCCC4)nc(N4CCCC4)n3)CC1)O2 | 98.2 | 97.2 | 111 | 90.2 | 93.4 | 87.1 | 95.4 | 101 | 102 | 94.9 | 102 | 98
CC(C)n1nc(-c2ccc3oc(N)nc3c2)c2c(N)ncnc21 [INK 128 (MLN0128)] | 28.2 | 29.2 | 30 | 32.9 | 29.4 | 28.2 | 79.2 | 68.8 | 69.8 | 76 | 80.6 | 72.8
C[C@@H]1CN(CC(=O)Nc2ccc3c(c2)Cc2cccc(-c4cc(=O)cc(N5CCOCC5)o4)c2S3)C[C@H](C)O1 | 103 | 108 | 102 | 70.2 | 64.9 | 55 | 96.9 | 88 | 92.3 | 98.7 | 89.5 | 81.6
COc1cc(NC(=O)c2ccccn2)ccc1Cl | 83.8 | 79.6 | 70.9 | 106 | 113 | 116 | 105 | 91 | 88.2 | 103 | 95 | 96.2
C=CC[C@@H]1/C=C(\C)C[C@H](C)C[C@H](OC)[C@H]2O[C@@](O)(C(=O)C(=O)N3CCCC[C@H]3C(=O)O[C@H](/C(C)=C/[C@@H]3CC[C@@H](O)[C@H](OC)C3)[C@H](C)[C@@H](O)CC1=O)[C@H](C)C[C@@H]2OC [FK-506 (Tacrolimus)] | 115 | 123 | 134 | 121 | 125 | 133 | 98.7 | 100 | 93.3 | 102 | 98.7 | 99.9
COc1nc(-c2ccc3c(c2)OCO3)n(-c2ccc(NC(=O)CSc3ccccc3)cc2)n1 [SecinH3] | 106 | 117 | 121 | 107 | 100 | 93.3 | 105 | 105 | 98.9 | 107 | 96.8 | 100
CCOc1cc(C(=O)Nc2ccc(Cl)c(-c3nc4ccccc4[nH]3)c2)cc(OCC)c1OCC [SANT-2] | 117 | 114 | 121 | 97.5 | 92.7 | 74.1 | 102 | 109 | 104 | 102 | 105 | 97.5
